Columns and labels:
HUVECs = test: Endothelial tube formation assay on matrigel; format: cell-based, human
Description: Figure 2 TAX2 peptide impairs endothelial cell migration and inhibits angiogenesis in vitro and ex vivo A. HUVECs were treated with TAX2 (100 μM) or scrambled peptide (Ctrl, 100 μM). CD47 was immunoprecipitated from total protein lysates using anti-CD47 (clone B6H12) and non-specific IgGs were used as a negative control. Immunocomplexes were then submitted to SDS-PAGE and immunoblotted (IB) using specific TSP-1 and CD47 antibodies. Histogram represents the quantification of co-immunoprecipitated TSP-1 relative to immunoprecipitated CD47. Results are expressed as percentage compared to control (n = 3 separate experiments, t test). B. HUVECs (1 × 10^5 per well) were grown at confluence and then cell proliferation was inhibited by incubating with 10 μg/mL mitomycin C for 2 h. Migration assays were performed for 9 h with or without TAX2 peptide (100 μM), as described in Materials and Methods. Photographs (100×) were taken every 3 h. Graph represents the quantification of the wounded area. Each value is the mean of 3 independent experiments, each performed in quadruplicate. C. HUVECs (5 × 10^4 per well) were plated into the upper compartment of a Transwell membrane and incubated for 12 h in EGM-2 in the presence of 100 μM TAX2 peptide. Hoechst-stained migrating cells attached on outside surface of the top chamber were photographed (20× objective) and counted. Results are expressed as percentage of migrated cells as compared to control. Each value represents the mean of 5 independent experiments, each performed in triplicate.*p < 0.05, compared to control; t test. D. HUVECs (5 × 10^4) were cultured on matrigel layers in control conditions (Ctrl) or in the presence of TAX2. After 8 h incubation, HUVEC tube-like formation was observed on an inverted microscope (40×) and quantification of network total length was done using ImageJ software. Numeration of branching points, tubes and nodal structures was conducted using S.CORE system. Data are expressed as the mean ± SE from at least 3 independent experiments, each performed in triplicate. […] F. Total RNAs were purified from HUVECs transfected with non-silencing siRNA (siCtrl) or siRNA targeting TSP-1 (siTSP-1). The transcriptional level of TSP-1 was assessed by RT-PCR and normalized to β-actin. […] After 6 days incubation in the presence of 100 μM TAX2 or control peptide (Ctrl), images were taken with an inverted microscope (40×) and microvessel area was quantified using ImageJ software. […]
Figure 3 Anti-angiogenic properties of TAX2 are mediated by TSP-1 binding to CD36 A. Expression of CD36 in HUVECs was assessed by immunoblotting (left panel) and immunofluorescence staining (right panel, red). […] The presence of TSP-1 in immunocomplexes was quantified by densitometric analysis relative to immunoprecipitated CD36. […]

TSP-1 binding to FGF-2 = test: Co-immunoprecipitation TSP-1 with FGF-2; format: cell-based, human; conditions: HUVECs, 100 μM; conditioned media
Description: Protein lysates prepared in ice-cold lysis buffer or conditioned media were subjected to immunoprecipitation assay using the Pierce Co-IP kit (Thermo Fisher Scientific) according to the manufacturer's protocol. 10 μg of antibody (anti CD47, anti-CD36, anti-FGF2, anti-VEGF, anti-β1 integrin and anti-LRP1 heavy chain) or non-specific IgGs were incubated with the delivered resin and covalently coupled. The antibody-coupled resin was incubated with whole HUVEC protein lysate overnight at 4°C under gentle agitation (no cross-linker was used to stabilize protein complexes before HUVEC lysis). Then the resin was washed and the protein complexes bound to the antibody were eluted. Immunoprecipitated protein complexes were solubilized under denaturing and reducing conditions, heated to 100°C for 5 min and analyzed by immunoblotting as described above. […]
receptors. HUVECs were treated with TAX2 (100 μM) or scrambled peptide (Ctrl, 100 μM). FGF-2 and VEGF were immunoprecipitated from conditioned media using anti-FGF-2 (clone C-18) and anti-VEGF (clone C-1), respectively. β1 integrin and LRP-1 were immunoprecipitated from total protein lysates using anti-β1 integrin (clone BV7) and anti-LRP-1 heavy chain (clone 8G1), respectively. […] Histogram represents the quantification of relative ligand-bound TSP-1 under TAX2 treatment as compared to control. […]

Sequence: CEVSQLLKGDAC (disulfide) [TAX2, CD47-derived cyclic disulfide dodecapeptide …]
- formation of branching points, capillary tubes and nodal structures (HUVECs; HUVECs on matrigel, 8 h, S.CORE): decreased
- inhibition of pseudo-tube network formation (total network length) (HUVECs; HUVECs on matrigel, 8 h, at least 3 experiments in triplicate): 40%
- effect on lumen formation under TSP-1 gene silencing (HUVECs; HUVECs transfected with siTSP-1, matrigel, 8 h): wholly abolished
- prevention of capillary structure formation in presence of CD36 blocking antibody (HUVECs; HUVECs, 100 μM, 12 h, anti-CD36 blocking antibody, n = 3): wholly reversed
- TSP-1 binding to FGF-2 (TSP-1 binding to FGF-2): does not affect

— PMC4627230, “Identification of TAX2 peptide as a new unpredicted anti-cancer agent” (Oncotarget, 2015)
